Measured values as given in patent US20070259060A1, “Formulations and Methods for Treating Breast Cancer with Morinda Citrifolia and Methylsulfonymethane” (priority 2003, published 2007).

Legend:
[1] = tested on: mammary gland tumorigenesis induced by estrogen; test: E2-induced mammary tumors (Example Four); type: in vivo, female ACI rats
Excerpt: FIG. 2 is a graphical representation of the preventative effects of Morinda citrifolia-containing compounds on mammary gland tumorigenesis induced by estrogen in female ACI rats in accordance with the present invention.
Sixty five-week old female rats were divided into four groups of fifteen rats each and placed on regular diets. Another eight female rats served as age-matched controls. One group of experimental rats was given 5% placebo in drinking water, the second experimental group was given 5% Morinda citrifolia juice in drinking water, the third experimental group was given 5% Methylsulfonylmethane (“MSM”) in drinking water, and the fourth experimental group was given a combination of 5% Morinda citrifolia juice and 5% MSM in drinking water. Two weeks later, all animals were implanted subcutaneously with a 25 mg pellet containing 22.5 mg of 17β-estradiol (E2) mixed with 2.5 mg cholesterol. Each experimental group was provided with its respective formulation for ninety days following estrogen (E2) implantation. The age-matched control animals received a 25 mg cholesterol pellet implant.
All rats with an E2 implant in the placebo group had mammary gland tumors. One hundred percent (100%) of the rats in this group had three to seven tumors. Seventy-one percent (71%) of the rats in the Morinda citrifolia group had two to five tumors. Fifty-seven percent (57%) of the rats in the MSM group had one to four tumors. Forty-three percent (43%) of the rats in the combination group had zero to three tumors.
The average tumor area in the placebo group, Morinda citrifolia group, MSM group, and combination group at 180 days after E2 implantation were 17, 12, 10 and 6 mm^2, respectively. The survival rates of the control, placebo, Morinda citrifolia, MSM and combination groups one hundred and sixty days after E2 implantation were 100%, 0%, 47%, 73%, and 87%, respectively. The survival rates of each group at one hundred eighty days after E2 implantation was 100%, 0%, 0%, 20% and 60%, respectively. At two hundred days, the survival rates of each group were 100%, 0%, 0%, 0%, and 27%, respectively.

[2] = tested on: mammary carcinogenesis induced by DMBA; test: DMBA-induced mammary carcinogenesis, Morinda citrifolia/MSM combination (Example Five); type: in vivo, female SD rats
Excerpt: In research supporting the present invention, the cancer preventive effects of Morinda citrifolia, MSM, and their combination at the initiation stage of multiple stage chemical carcinogenesis was investigated on a mammary breast carcinogenic animal model induced by DMBA in female SD rats. In the experiment, seventy-five female SD rats were divided into five groups: age-matched control, DMBA, 5% Morinda citrifolia+DMBA, 5% MSM+DMBA, and 5% Morinda citrifolia+5% MSM+DMBA groups. The experiment was started at the 35th postnatal day with water being given to the age-matched control group and the DMBA group, while 5% Morinda citrifolia, 5% MSM, and 5% Morinda citrifolia+5% MSM was supplied to the Morinda citrifolia, MSM, and Morinda citrifolia+MSM+DMBA groups. DMBA (25 mg/kg) was administered by mouth at the 50th postnatal day in the DMBA, Morinda citrifolia+DMBA, MSM+DMBA, and Morinda citrifolia+MSM+DMBA groups. Morinda citrifolia, MSM, Morinda citrifolia+MSM were continuously supplied for an additional 90 days after DMBA administration. All animals were sacrificed at the 9th month after DMBA treatment to examine the pathological changes in the mammary glands by light microscopy. […] Therefore, this synergistic combination regimen may contribute to human breast cancer prevention at the initiation stage of carcinogenesis. […]

[3] = 5% in drinking water from two weeks before to ninety days after E2 implantation

For `CS(C)(=O)=O` [MSM, methylsulfonylmethane], the “number of tumors per rat” value [1, 3] was “one to four”, the “percent of the rats with mammary tumors” value [1, 3] was 57% and the body weight ([1]; 5% in drinking water, E2 implant) was “slight body weight loss”. The average tumor area ([1]; 180 days after E2 implantation) was 10 mm^2, the survival rate ([1]; one hundred and sixty days after E2 implantation) was 73% and the survival rate ([1]; one hundred eighty days after E2 implantation) was 20%. The survival rate ([1]; two hundred days after E2 implantation) was 0%, the mild hyperplasia ([2]; 5% each, sacrificed 9th month after DMBA) was 75% and the “benign tumor or carcinoma in mammary glands by light microscopy” value ([2]; 5% from 35th postnatal day until 90 days after DMBA 25 mg/kg by mouth, sacrificed 9th month) was “No benign tumor or carcinoma was observed”.
